Reference: US20210308196A1, “COMPOSITIONS AND METHODS TO PROMOTE HOST DEFENSE AND STIMULATE, EXPAND, AND/OR RESET T CELL REPERTOIRES” (EVOLVE BIOSYSTEMS, INC., priority 2018, published 2021)

System: human colonic mucin glycans
Experiment: Fecal glycome and colonic mucin-derived O-glycans (nano-HPLC-Chip-TOF MS)
Type: in vivo
Text: A library of known mucin-specific O-glycans was compiled and used to query untargeted mass spectra of fecal samples.
Analysis of spectra obtained with nano-high performance liquid chromatography-chip/time-of flight mass spectrometry (nano-HPLC-Chip-TOF MS). […] Briefly, the HPLC system used was an Agilent 1200 series unit with a microfluidic chip, which was coupled to an Agilent 6220 series TOF mass spectrometer via chip cube interface. The capillary pump on the chromatography unit loaded the sample onto the 40-nL enrichment column at a flow rate of 4.0 μL/min with a 1-μL injection volume. A nano pump was used for analyte separation on the analytical column, which was […] and packed with porous graphitized carbon. Separation was accomplished using a binary gradient of aqueous solvent A (3% acetonitrile (ACN)/water (v/v) in 0.1% formic acid (FA)) and organic solvent B (90% ACN/water (v/v) in 0.1% FA) using a method developed for HMO separation. The sample was introduced into the TOF mass spectrometer via electrospray ionization, which was tuned and calibrated using a dual nebulizer electrospray source with calibrant ions ranging from m/z 118.086 to 2721.895, and data were collected in the positive mode. These untargeted spectra were reanalyzed in the present study.
Glycan data analysis. The untargeted mass spectra were collected (as above) and analyzed using Agilent MassHunter Work station Data Acquisition version B.02.01 on the nanoHPLC-chip/TOF (Frese et al 2017). The “Find Compounds by Molecular Feature” function of the software was used to identify mucin glycan species within 20 ppm of theoretical masses. Compound abundances were expressed as volume in ion counts that corresponded to absolute abundances of the compounds in each sample. 1HexNAc-1NeuAc, 1HexNAc-1Hex-NeuAc, 2HexNAc-1NeuAc, 2HexNAc-1Hex-1Fuc, 2HexNAc-1Hex-1NeuAc, 2HexNAc-1Hex-2Fuc, 3HexNAc-1Hex-1Fuc, 2HexNAc-1Hex-1Fuc-1NeuAc, 2HexNAc-1Hex-1Fuc-2NeuAc, 3HexNAc-1Hex-2NeuAc and 3HexNAc-1Hex-2Fuc-1NeuAc were monitored as they are discriminitively human colonic glycans. Robbe et al. (2004) Rapid Communications in Mass Spectrometry 18(4): 412-420.
Statistical analysis. Multiple t-tests were carried out with the Holm-Sidak correction in Graph Pad Prism 7 (GraphPad Software, La Jolla, Calif. USA). Pearson and Spearman correlational tests and principle component analyses were performed in R (v 3.4.2). Adonis test was carried out using a weighted UNIFRAC distance matrix (Lozupone et al 2011) in QIIME 1.9.1 (Caporaso et al 2010). […] The total oligosaccharide (OS) compositions of the samples were determined by the untargeted approach of nano-HPLC-Chip-TOF. The compounds were characterized using previously published libraries. Thomsson et al. (2002) Glycobiology 12(1): 1-14; Robbe et al. (2004) Rapid Communications in Mass Spectrometry 18(4): 412-420; Matamoros et al. (2013) Trends in Microbiology 21(4): 167-173; Karav et al. (2016) Applied and Environ. Micro. 82(12): 3622-3630. Among these compositions, free HMO (Frese et al. (2017) mSphere 2(6): e00501-e00517) and mucin OS were found in the infant fecal glycome. The degradation of human colonic mucin glycans by different gut microbiome profiles was determined as the difference between a B. infantis-dominated microbiome and microbiomes with more abundant mucolytic taxa, such as Bacteroidaceae. As target molecules, 1HexNAc-1NeuAc, 1HexNAc-1Hex-NeuAc, 2HexNAc-1NeuAc, 2HexNAc-1Hex-1Fuc, 2HexNAc-1Hex-1NeuAc, 2HexNAc-1 Hex-2Fuc, 3HexNAc-1Hex-1Fuc, 2HexNAc-1Hex-1Fuc-1NeuAc, 2HexNAc-1Hex-1Fuc-2NeuAc, 3HexNAc-1Hex-2NeuAc and 3HexNAc-1Hex-2Fuc-1NeuAc, were selected as typical human colonic mucin glycans, as shown by Robbe et al. (2004) Rapid Communications in Mass Spectrometry 18(4): 412-420.

With “Bifidobacterium longum subsp. infantis EVC001 [B. infantis EVC001]” the “Number of total OS structures (including isomers and anomers)” value (infant feces, FIG. 2A) was 360.44±102.52, the “Number of colonic mucin-derived O-glycan structures” value (infant feces, FIG. 2B) was 6.33 (±2.24) and the “Relative abundance of colonic mucin-derived O-glycans, number of structures” value (infant feces, FIG. 2C) was 1.78%±0.385. For the same substance, the “Colonic mucin-derived O-glycans, proportion of the total OS profile” value (infant feces, FIG. 2D) was 1.68±1.12%, the “Glycan 1_0_0_1 (1HexNAc-1NeuAc) Log10 Volume EVC001-fed [Mean (+/− SD)]” value (infant feces, neutral mass 512) was 5.39 and the “Glycan 1_1_0_1 (1HexNAc-1Hex-1NeuAc) Log10 Volume EVC001-fed [Mean (+/− SD)]” value (infant feces, neutral mass 675) was 4.01. The “Glycan 2_0_0_1 (2HexNAc-1NeuAc) Log10 Volume EVC001-fed [Mean (+/− SD)]” value (infant feces, neutral mass 716) was 0, the “Glycan 2_1_1_0 (2HexNAc-1Hex-1Fuc) Log10 Volume EVC001-fed [Mean (+/− SD)]” value (infant feces, neutral mass 735) was 0 and the “Glycan 2_1_0_1 (2HexNAc-1Hex-1NeuAc) Log10 Volume EVC001-fed [Mean (+/− SD)]” value (infant feces, neutral mass 878) was 5.56. For the same substance, the “Glycan 2_1_2_0 (2HexNAc-1Hex-2Fuc) Log10 Volume EVC001-fed [Mean (+/− SD)]” value (infant feces, neutral mass 879) was 5.48, the “Glycan 3_1_1_0 (3HexNAc-1Hex-1Fuc) Log10 Volume EVC001-fed [Mean (+/− SD)]” value (infant feces, neutral mass 936) was 5.43 and the “Glycan 2_1_1_1 (2HexNAc-1Hex-1Fuc-1NeuAc) Log10 Volume EVC001-fed [Mean (+/− SD)]” value (infant feces, neutral mass 1024) was 5.38. For the same substance, the “Glycan 2_1_1_2 (2HexNAc-1Hex-1Fuc-2NeuAc) Log10 Volume EVC001-fed [Mean (+/− SD)]” value (infant feces, neutral mass 1315) was 6.68, the “Glycan 3_1_0_2 (3HexNAc-1Hex-2NeuAc) Log10 Volume EVC001-fed [Mean (+/− SD)]” value (infant feces, neutral mass 1372) was 5.47 and the “Glycan 3_1_2_1 (3HexNAc-1Hex-2Fuc-1NeuAc) Log10 Volume EVC001-fed [Mean (+/− SD)]” value (infant feces, neutral mass 1373) was 6.12. For the same substance, the Mucin degradation (supplemented infants compared to the control group) was “significantly less”.
